The text below walks through data of patent publication US20240049713A1, “METHOD FOR CONTROLLING HERBICIDE-RESISTANT WEEDS” (SUMITOMO CHEMICAL COMPANY, LIMITED, priority 2020, published 2024).

Where two headings read alike, the source gives them in different places.

For experiment [1], the system named is PPO inhibitor-resistant weeds. In words: plastic pot tests as Examples 1 to 72 and variants (Examples 73 to 3456).
Method: On the same day, compound X is applied to the surface of soil so that the application rate of the compound X is 10, 20, 40 or 80 g/ha and the spray volume is 200 L/ha. The plastic pot is then placed in a greenhouse, and at 7 days after the application, soybeans are seeded, and further at 14 days after seeding the soybeans, the effect on the weeds and crop injuries on the soybeans are investigated.
On the same day, compound X is applied to the surface of soil so that the application rate of the compound X is 10, 20, 40 or 80 g/ha and the spray volume is 200 L/ha. The soybeans are then cultivated in a greenhouse, and at 21 days after seeding, the effect on the weeds and crop injuries on the soybeans are investigated.
The soybeans are then cultivated in a greenhouse, and at 21 days after seeding, compound X is foliar-treated so that the application rate of the compound X is 10, 20, 40 or 80 g/ha and the spray liquid amount is 200 L/ha. Further, the soybeans are cultivated in the greenhouse, and at 14 days after the application of compound X, the effect on the weeds and crop injuries on the soybeans are investigated.
Experiment [2] has as its system waterhemp (Amaranthus tuberculatus=Amaranthus rudis=Amaranthus tamariscinus) having Gly210 deficiency in PPO2. The format is in vivo. The note with it: rating 0 to 100, sprayed at plant height 20 cm, 200 L/ha, 1% (w/v) Agri-Dex, evaluated after 14 days in greenhouse.
Setting [3] is: as Examples 1 to 216, RoundupPowerMax 32 fluid ounce/acre and XtendiMax 1 pint/acre further added.
Where [4] appears, read: applications as in Examples 1 to 72, compound X replaced, 10 to 80 g/ha.

Regarding `CCOC(=O)COC(=O)C1(Oc2cc(-n3c(=O)cc(C(F)(F)F)n(C)c3=O)c(F)cc2Cl)CC1` [Compound X], the “effect on the weeds” value in experiment [1] (setting [3]) is recorded as “effective control effect”. The herbicidal effect in experiment [2] (20 g/ha) and in experiment [2] (40 g/ha) was 99 in each case.
`COC(=O)COC(=O)C1(Oc2cc(-n3c(=O)cc(C(F)(F)F)n(C)c3=O)c(F)cc2Cl)CC1` [Compound Y]: the “effect on the weeds” value in experiment [1] (setting [4]) and in experiment [1] (setting [3]) was “effective control effect” throughout.
In the case of `Cn1c(C(F)(F)F)cc(=O)n(-c2cc(OC3(C(=O)OCC(=O)O)CC3)c(Cl)cc2F)c1=O` [Compound Z], the “effect on the weeds” value in experiment [1] (setting [4]) and in experiment [1] (setting [3]) was “effective control effect” each time.
`COC(=O)CCNC(=O)C(C)Sc1cc(-n2c(=O)cc(C(F)(F)F)n(C)c2=O)c(F)cc1Cl` (stereo not drawn) [Tiafenacil, tiafenacil, reference compound]: the herbicidal effect is 50 in experiment [2] (20 g/ha) and 70 in experiment [2] (40 g/ha).
